Converted amounts (≈) assume the structure as drawn. Read-outs that look alike come from different tables or passages of the source. Values belong to the molecule of their own block, whether it stands above or below them.
Legend:
[1] = Oral bioavailability / pharmacokinetic study in conscious female S-D rats (plasma scutellarin by UHPLC-MS/MS); settings: Sprague-Dawley (S-D), rat, in vivo
Method: Scutellarin exposure after oral administration of scutellarin and prodrugs was detected in conscious female S-D rats. The rats were fasted for 12 h before the experiment and divided into three groups (n = 5 each group) randomly: scutellarin solution (25 mg/kg), Scu-Me-C5-TG solution (62.5 mg/kg equivalent to Scu), Scu-Me-C5-βMe-TG solution (62.5 mg/kg equivalent to Scu). Blood samples (0.5 mL) were collected from 5 min before administration to up to 24 h post-dosing and centrifuged at 16,000 rpm for 15 min to separate plasma. 100 μL plasma was added into 900 μL methanol and vortexed for 5 min, then centrifuged at 16,000 rpm for 15 min. The supernatant was sampled and used for UHPLC-MS/MS detection. The pharmacokinetic parameters were calculated by DAS 2.0 software.

[2] = In vivo lymphatic transport in anesthetized mesenteric lymph duct-cannulated rats; set-up: species or system rat; settings: scutellarin 25 mg/kg intragastric, anesthetized female rats
[3] = cited from earlier work
[4] = source not stated; cited from earlier work
[5] = set-up: method as in Marina Shamis and Shabat, 2003; Ma et al., 2015; settings: Figure 2; ref Marina Shamis and Shabat, 2003; Ma et al., 2015; cited from earlier work
[6] = set-up: method as in Huang et al., 2005; settings: rats; ref Huang et al., 2005; cited from earlier work
[7] = set-up: method as in Lu et al., 2010; settings: humans, 60 mg of scutellarin taken orally; ref Lu et al., 2010; cited from earlier work

F rel [1]: 223.8%
maximum plasma concentration (Cmax), fold of the parent drug [1]: 1.72 fold
relative oral bioavailability (Frel), fold of scutellarin [1]: 2.24 fold
SMILES: CCCCCCCCCCCCCCCC(=O)OCC(COC(=O)CCCCCCCCCCCCCCC)OC(=O)CCCC(=O)Oc1ccc(-c2cc(=O)c3c(O)c(O)c(O[C@@H]4O[C@H](C(=O)OC)[C@@H](O)[C@H](O)[C@H]4O)cc3o2)cc1 [Scu-Me-C5-TG, 1,3-bis(palmitoyloxy)propan-2-yl (4-(5,6-dihydroxy-4-oxo-7-(((2S,3R,4S,5S,6S)-3,4,5-trihydroxy-6-(methoxycarbonyl)tetrahydro-2H-pyran-2-yl)oxy)-4H-chromen-2-yl)phenyl) glutarate]

F rel [1]: 245.2%
maximum plasma concentration (Cmax), fold of the parent drug [1]: 2.11 fold
relative oral bioavailability (Frel), fold of scutellarin [1]: 2.45 fold
SMILES: CCCCCCCCCCCCCCCC(=O)OCC(COC(=O)CCCCCCCCCCCCCCC)OC(=O)CC(C)CC(=O)Oc1ccc(-c2cc(=O)c3c(O)c(O)c(O[C@@H]4O[C@H](C(=O)OC)[C@@H](O)[C@H](O)[C@H]4O)cc3o2)cc1 (stereo partly shown) [Scu-Me-C5-βMe-TG]

SMILES: O=C(O)[C@H]1O[C@@H](Oc2cc3oc(-c4ccc(O)cc4)cc(=O)c3c(O)c2O)[C@H](O)[C@@H](O)[C@@H]1O [Scutellarin]
drug in collected mesenteric lymph (mass spectrometry) [2]: failed to reach the limit of quantification
Log P ([3]; source not stated): −2.56
pKa [4]: 3-5
water solubility [5]: 20 µg/mL (≈ 43.3 µM)
oral bioavailability [6]: 10.6%
Plasma Cmax [7]: < 5.0 ng/mL

SMILES: CC[C@@]1(O)C(=O)OCc2c1cc1n(c2=O)Cc2cc3c(CN(C)C)c(O)ccc3nc2-1 [Topotecan]
Log P ([3]; ref Wang et al., 2017): 0.8

— article PMC8330727, “Triglyceride-mimetic prodrugs of scutellarin enhance oral bioavailability by promoting intestinal lymphatic transport and avoiding first-pass metabolism” (Drug Delivery, 2021)
